# According to publication PMC7504735, “Enhanced Antigiardial Effect of Omeprazole Analog Benzimidazole Compounds” (Molecules, 2020):
# pIC50: −log10 of the molar value.
# Tests used:
# [1] = system: Giardia lamblia trophozoites; assay: Antigiardial activity on G. lamblia trophozoites, trypan blue dye exclusion; assay type: cell-based; conditions: Giardia duodenalis, 48 h at 37 °C, pH 7.4, trypan blue
# Procedure: Giardia lamblia WB strain (ATCC number 30957) was grown in a modified TYI-S-33 medium supplemented with 10% fetal bovine serum. The parasite was cultivated in 15 mL screw-capped borosilicate glass tubes containing 13 mL medium. The tubes were incubated on a 15° horizontal slant at 37 °C. Giardia was harvested from confluent culture by chilling the tubes on ice for 5‒10 min to detach cells, followed by centrifugation at 800× g for 5 min.
# The antigiardial activity of the prepared compounds was tested as described. One milligram of a test compound was dissolved in 10 L of DMSO and topped up with 1 mL growth medium. The solution was filter-sterilized using 0.22-m syringe filters and the appropriate volumes of the solutions were taken to prepare the concentration of each compound in 1.5 mL microtubes. For each preparation, concentrations of 500, 250, 125, 62, and 31 µg/mL were prepared in a final volume of 1.5 mL. Each tube was inoculated with 5 × 10^4 trophozoites of G. lamblia and then incubated for 48 h at 37 °C. After incubation, 75 L of the treated trophozoites were subcultured individually for another 48 h in a fresh medium free of compounds. At the end of this period, the viable trophozoites were counted. Each compound was assayed in duplicate in three independent experiments. In each assay, appropriate controls were also tested, including a sample without compound and another with DMSO.
# The parasites in each tube were counted using a standard hemocytometer at 10× objective. In each count, trypan blue was employed to distinguish live parasites from dead ones. To permit detachment of Giardia, the tubes were placed on ice for 10 min and the parasites were then centrifuged at 800× g for 10 min. The supernatant was discarded and 1 mL fresh medium was added to each tube. The final suspension was prepared by mixing 25 μL of the parasite suspension in each tube with 100 μL of 0.4% trypan blue in phosphate-buffered saline (PBS). The 50% inhibitory concentration (IC50) was employed as a parameter for biological activity. The IC50 is the concentration of compounds that cuts the number of parasites to half that in the negative control (growth medium + DMSO + parasites). Lastly, the 50% inhibitory concentration (IC50) was calculated.
# HT29 cells = assay: In vitro cytotoxicity, XTT assay, HT29; assay type: cell-based, human; conditions: for Selectivity index (SI), CC50 HT29 / IC50 trophozoites: ratio of CC50/IC50 between mammal cells and trophozoites
# Procedure: (§1) The cytotoxicity of compounds was investigated on human cell lines Caco-2 (ATCC HTB-37) and HT-29 (ATCC HHTB-38), using a Cell Proliferation Kit II (XTT; St Louis, MO, USA) according to the manufacturer’s instructions. A cell suspension of 10^5 cells/mL was prepared in Dulbecco’s modified Eagle’s (DMEM); medium supplemented with 10% inactivated fetal bovine serum and 1% Penicillin/streptomycin (5000 U/mL), from confluent cultures, and […] portions of the suspension were added to the wells of 96-well plates. […] Solutions of the compound were prepared and sterilized as described in Section 3.4.1 of Materials and Methods. Then, 150 μL of two-fold serial dilutions of each of the compounds, starting at a concentration of 500 µM, in a culture medium at a concentration of 0.3% DMSO, were prepared in the plates. […] Each compound was assayed in triplicate via three independent experiments.
# [2] = target: T1, triosephosphate isomerase (TPI) (Giardia intestinalis, UniProt P36186); assay: Inactivation of recombinant TPI enzyme with compounds; assay type: biochemical; conditions: for Loss (reduction) of TPI enzyme activity: 500 µM compound, 2 h at 37 °C
# T1 construct: His-tag (TEV-cleavable) (cleaved yes); made in house
# Procedure: The TPI from G. lamblia was expressed and purified. […] When the culture reached A600 = 0.8, it was induced using 0.4 mM IPTG and incubated overnight at 30 °C with shaking at 180 rpm. After the bacteria were collected by centrifugation (10,000× g, 15 min) and suspended in 40 mL of lysis buffer, pH 8.0 (50 mM Tris, 50 mM NaCl, 5 mM β-mercaptoethanol, and 1 mM phenylmethylsulfonyl fluoride). The bacterial suspension was disrupted by sonication and centrifuged at 9000× g for 1 h at 4 °C. Protein purification was performed by immobilized metal affinity chromatography (IMAC) using a Profinity Ni^2+ charged resin (Bio-Rad) previously reported by Enriquez-Flores et al.. The His-tag sequence was removed from the TIM by incubation with TEVP at a molar ratio of 30:1 (TPI/TEVP) at room temperature for 17 h in digestion buffer, pH 8.0 (50 mM Tris, 0.5 mM ethylene diamine tetraacetic acid (EDTA), and 1 mM dithiothreitol). The enzyme concentration was spectrophotometrically determined at 280 nm, and the enzyme was used immediately.
# Enzyme activity of TPI was determined spectrophotometrically as described by monitoring the conversion of glyceraldehyde-3-phosphate (GAP) to dihydroxyacetone phosphate (DHAP). […] The standard reaction mixture contained 1 mM GAP, 0.2 mM NADH, and 0.9 units/mL of α-GDH in TE buffer (100 mM triethanolamine, 10 mM EDTA, pH 7.4). The reaction was initiated by adding 5 ng/mL of TPI to the reaction mixture.
# To determine the inactivation of the TPI enzyme from G. lamblia, we performed inactivation assays of the enzyme in the presence of the synthesized compounds. The compounds’ stock solutions were freshly prepared using 100% dimethyl sulfoxide (DMSO) as the solvent at 25 mM. […] After the incubation period, the enzymatic activity was measured by withdrawing an aliquot of each experimental condition, as described above. The results were expressed in terms of the percentage of activity versus the compound’s concentration.
# [3] = target: T1, triosephosphate isomerase (TPI); assay: Intrinsic fluorescence of TPI; conditions: for Decrease of maximum intrinsic fluorescence intensity of TPI: compared to the TPI enzyme free of compounds; for Maximum intrinsic fluorescence intensity of TPI: compound at IC50 concentration, TPI without inhibitors 161 a.u. at 330 nm
# Procedure: Changes in tertiary structure were analyzed following the intrinsic and extrinsic fluorescence of the TPI enzyme in a Perkin-Elmer LS-55 spectrofluorometer (Perkin-Elmer, Wellesley, MA, USA). The TPI protein was adjusted at 0.1 mg/mL in 50 mM phosphate buffer (buffer P), pH 7.4n, and incubated with the four synthesized compounds by 2 h at 37 °C. After the TPI protein was incubated with the synthesized compounds, the samples were excited at 280 nm and we recorded the emission spectra from 300 to 500 nm with a scan speed of 150 nm/min and using excitation and emission slits of 5 and 4 nm, respectively. Furthermore, we determined the extrinsic fluorescence of the TPI enzyme in the presence of the four compounds by 8-anilinonaphthalene-1-sulfonic acid (ANS) assay to monitor changes in the hydrophobic regions of the protein. The protein was incubated in the same conditions as the intrinsic fluorescence assay. Then, we recorded the fluorescence spectra from 400 to 600 nm in the presence of 25 mM of ANS dissolved in methanol at 25 °C with a scanning rate of 150 nm/min. The samples were excited to 395 nm using slits of excitation and emission of 10 nm, respectively. The final spectrum was the average of five scans. Later, each spectrum was subtracted from the spectra of the blank (buffer P solution containing each of the compounds plus ANS).
# [4] = In vitro cytotoxicity, XTT assay, HT29; assay type: cell-based, human; conditions: human, HT-29 cells; for CC50 at 48 h: XTT; for viability at 48 h, 500 µM: read-out: Viability of HT-29 cells (lowered to)
# Procedure: as §1
# [5] = 500 µM (highest concentration tested)
# T1 sequence (P36186 whole entry): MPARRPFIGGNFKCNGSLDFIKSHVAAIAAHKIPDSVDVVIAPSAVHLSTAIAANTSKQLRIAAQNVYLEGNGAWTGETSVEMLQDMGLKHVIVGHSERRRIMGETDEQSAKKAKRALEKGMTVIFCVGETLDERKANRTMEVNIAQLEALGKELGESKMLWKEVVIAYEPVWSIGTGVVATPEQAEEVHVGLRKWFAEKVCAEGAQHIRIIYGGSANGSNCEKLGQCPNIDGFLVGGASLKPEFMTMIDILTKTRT
SMILES,pIC50 [1],"Cell viability decrease, HT29 (HT29 cells; [5])","CC50 (HT29 cells; XTT, 48 h) [µM]","Selectivity index (SI), CC50 HT29 / IC50 trophozoites (HT29 cells)",pIC50 [2],Loss (reduction) of TPI enzyme activity [2] [%],Decrease of maximum intrinsic fluorescence intensity of TPI [3] [%],Maximum intrinsic fluorescence intensity of TPI [3] [a.u.],CC50 at 48 h [4] [µM],"viability at 48 h, 500 µM [4] [%]","Cell viability decrease, HT29 (HT29 cells; 150 µM)",Enhancement of TPI inactivation (IC50) with respect to BHO2 [2] [fold]
"Cc1c(OCC(F)(F)F)ccnc1C[S+]([O-])c1nc2ccccc2[nH]1 (stereo not drawn) [Lansoprazole, 2-{[3-methyl-4-(2,2,2-trifluoroethoxy)pyridin-2-yl]methanesulfinyl}-1H-benzimidazole, reference compound]",4.35,approximately 20%,548,12,4.18,100,25,123,–,–,–,–
"COc1c(C)cnc(C[S+]([O-])c2nc3ccccc3[nH]2)c1C (stereo not drawn) [H-BZM2, 2-[(4-methoxy-3,5-dimethylpyridin-2-yl)methanesulfinyl]-1H-benzimidazole]",4.44,approximately 20%,–,53,4.43,100,75,40.1,1910,–,–,–
"Cc1c(OCC(F)(F)F)ccnc1C[S+]([O-])c1nc2ccc([N+](=O)[O-])cc2[nH]1 (stereo not drawn) [O2N-BZM9, 2-{[3-methyl-4-(2,2,2-trifluoroethoxy)pyridin-2-yl]methanesulfinyl}-5-nitro-1H-benzimidazole]",4.77,–,–,36,4.70,100,55,72.6,622,~50,around 20%,3.2
"O=[N+]([O-])c1ccc2nc([S+]([O-])Cc3ccccn3)[nH]c2c1 (stereo not drawn) [O2N-BZM7, 5-nitro-2-[(pyridin-2-yl)methanesulfinyl]-1H-benzimidazole]",4.85,–,–,37,4.92,100,33,107,519,~50,around 20%,5.3
